From patent US10494334B2, “Compounds to inhibit calcium/calmodulin dependent protein kinase II and applications thereof” (priority 2018, dated 2019) come the findings set out here.

In data set [1] the test system is DENV-2-eGFP reporter virus. As to the kind of experiment: Cell-based anti-DENV-2 screening with DENV-2-eGFP reporter virus in BE(2)C cells. Also noted: species or system type 2 dengue virus. The conditions noted are these: Dengue virus, DENV2, BE(2)-C, 24 h, read-out: DENV-2 infection %.
The subject of the next data set is BE(2)C cells. Kind of data set: XTT cell proliferation assay. Format: cell-based. The note with it: Homo sapiens, 6.25 μM compound, compared to solvent control. How it is done:
The cytotoxicity of candidate compounds to BE(2)C cells was evaluated by use of the cytotoxicity detection kit (LDH) (Roche), cell proliferation kit (XTT) (Roche), and Trypan blue cell counting assay. Briefly, cells were treated overnight with the candidate compounds at the indicated doses and subjected to the three assays. For LDH and XTT assays, light absorbance of the sample at 490 nm was determined by using an enzyme-linked immunosorbent assay (ELISA) reader (Molecular Devices). For Trypan blue cell counting assay, the number of viable cells was determined by use of haemocytometer. Data was normalized to solvent control and presented as a percentage.
On the technique in general: Tetrazolium dyes change colour on reduction, which living cells bring about.

A further data set addresses T1, purified human CaMKII (Homo sapiens, UniProt Q9UQM7).
T1 construct: MBL Internationl Corp (assay kit)
As to the kind of experiment: CaMKII biochemical assay (CycLex CaM kinase II Assay Kit). The conditions noted are these: syntide-2 substrate, Ca2+, calmodulin, Mg2+, ATP; normalized to solvent control. How it is done: A commercial CaMKII inhibitor, KN-62 (Selleckchem, S7422) was used as a positive control. Kinase reaction buffer without Ca^2+ was used as a negative control. The assay wells of the microtiter plate were then incubated with HRP-conjugated-anti-phospho-syntide-2 antibody, followed by addition of syntide-2. The phosphorylation reaction was stopped after incubation at room temperature for 15 minutes. Sample absorbance at 450 nm was determined by use of an ELISA reader (Molecular Devices). Data was normalized to solvent control and presented as a percentage.

In the next data set the test system is DENV-2 PL046 strain. Kind of data set: Antiviral assay, wild type DENV-2 in BE(2)C cells (IFA, Western blotting, plaque-forming assay). Format: cell-based, type 2 dengue virus. The conditions noted are these: three hours of treatment during viral adsorption (0-3 hpi), MOI 1, Western blot. (In general: A western blot detects proteins with antibodies after separation by electrophoresis.)

For the next data set, the system named is DENV-2. Kind of data set: Virus binding/entry assays, DENV-2 on BE(2)C cells. Format: cell-based, type 2 dengue virus.
The next data set concerns DENV-2 NGC-N strain. Kind of data set: Animal study, DENV-2-infected Stat1-deficient mice. Format: in vivo. The note with it: for overall survival: 6-day treatment. How it is done:
(§1) The mouse experiments were approved by the Academia Sinica Institutional Animal Care and Use Committee and performed in accordance with the guidelines. Infection was performed in mice under isoflurane anesthesia to minimize animal suffering. The DENV-2 New Guinea C strain serially passaged in mouse brain (NGC-N), kindly provided by Dr. Ching-Juh Lai (National Institutes of Health, USA) and ZIKV PRVABC59 strain were used in the animal study. Groups of 6-week-old Stat1^−/− mice were intravenously infected in the tail with 1×10^5 PFU of DENV-2 per mouse or subcutaneously infected in the footpad with 5×10^4 PFU of ZIKV per mouse. […] The mice were checked daily for severe symptoms including limb paralysis. Euthanasia of mice with severe limb paralysis was performed as the endpoint of animal survival. Mice survival was presented as percentage of survival. Mouse serum samples were collected on day 3 after infection by phlebotomy from facial vein, and the virus load was determined by plaque-forming assay.
(§2) Data are presented as mean±standard deviation and were compared by ANOVA and Bonferroni post-hoc test unless otherwise specified. Statistical significance was set at P values of <0.05 or <0.01. A survival curve was descriptively analyzed by use of SigmaPlot v10.0 (Systat software). The median survival time (T50) and P values, based on log-rank test, were determined by use of Prism v5.0 (GraphPad software). For Western blotting, the band intensity was quantified by use of ImageJ software (National Institutes of Health).

A further data set has as its system ZIKV PRVABC59 strain. Kind of data set: Animal study, ZIKV-infected Stat1-deficient mice. The data set is classed as in vivo. The conditions noted are these: for median survival time (T50): 8 mg/kg of body weight/day oral. As for the experimental part:
as §1, §2

The subject of a further data set is ZIKV. Kind of data set: Virus binding/entry assays, ZIKV on BE(2)C cells.
[2] abbreviates: 37° C. for 60 minutes after adsorption, dose-dependent.
[3] abbreviates: adsorption at 4° C. for 90 minutes.
Setting [4] is: 8-hours-delay treatment, 4 mg/kg of body weight/day oral.
The mark [5] stands for this setting: immediate treatment, 2 mg/kg of body weight/day oral.
The mark [6] stands for this setting: immediate treatment, 4 mg/kg of body weight/day oral.
[7] abbreviates: serum on day 3 after infection, plaque-forming assay, dose-dependent.

T1 sequence (Q9UQM7 with tags, fused parts or gaps): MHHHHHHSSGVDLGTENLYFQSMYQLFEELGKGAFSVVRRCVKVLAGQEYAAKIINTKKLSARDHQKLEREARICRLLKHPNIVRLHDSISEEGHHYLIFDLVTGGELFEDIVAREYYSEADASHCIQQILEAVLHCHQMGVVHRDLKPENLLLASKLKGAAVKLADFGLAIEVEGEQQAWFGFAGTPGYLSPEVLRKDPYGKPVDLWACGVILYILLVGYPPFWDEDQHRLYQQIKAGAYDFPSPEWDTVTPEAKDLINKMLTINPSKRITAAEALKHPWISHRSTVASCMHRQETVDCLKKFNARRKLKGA

As a reminder, the viability is a read-out of living cells in per cent, often relative to untreated cells. By melting point is commonly meant the temperature of the solid-liquid transition. For the compound `COc1ccc(S(=O)(=O)N(CCCC(=O)c2ccc(F)cc2)c2ccccc2)cc1` [Compound 1, N-(4-(4-fluorophenyl)-4-oxobutyl)-4-methoxy-N-phenylbenzenesulfonamide], the melting point fell in the range of 93 to 94 °C. Besides, the activity at 3.125 µM in [1] was 39.3%. Further, in the data set with BE(2)C cells, the viability at 6.25 µM was determined as 56.1%.
The like results for `COc1ccc(S(=O)(=O)N(CCCC(=O)C2CCCCC2)c2ccccc2)cc1` [Compound 6, N-(4-cyclohexyl-4-oxobutyl)-4-methoxy-N-phenylbenzenesulfonamide] were, in that order, 81 to 82 °C, 63.3% and 107%.
As for `COc1ccc(S(=O)(=O)NCCCC(=O)c2ccc(F)cc2)cc1` [Compound 3], the melting point fell in the range of 84 to 85 °C.
Broadly, the IC50 is the midpoint of a concentration-inhibition curve. A higher IC50 goes with weaker potency in that assay. Regarding `COc1ccc(S(=O)(=O)N(CCCC(=O)C2CCC2)c2ccccc2)cc1` [Compound 7, N-(4-cyclobutyl-4-oxobutyl)-4-methoxy-N-phenylbenzenesulfonamide], the activity at 3.125 µM in [1] was 33%. The viability at 6.25 µM with BE(2)C cells came out at 93.9%. In addition, the half-maximal inhibitory concentration (IC50) on purified human CaMKII was approximately 600 nM.
For the compound `COc1ccc(S(=O)(=O)N(CCCC(O)c2ccc(F)cc2)c2ccccc2)cc1` (centres unmarked) [Compound 2, N-(4-(4-fluorophenyl)-4-hydroxybutyl)-4-methoxy-N-phenylbenzenesulfonamide], the activity at 3.125 µM in data set [1] turned out to be 48.5%. Besides, the viability at 6.25 µM in the data set with BE(2)C cells turned out to be 76.3%.
Take `COc1ccc(S(=O)(=O)N(CCCC(C)=O)c2ccccc2)cc1` [Compound 5, 4-methoxy-N-(4-oxopentyl)-N-phenylbenzenesulfonamide]: the melting point is 81 to 82 °C. Moreover, the activity at 3.125 µM in data set [1] was 101%. The viability at 6.25 µM in the data set on BE(2)C cells is 106%.
Consider `COc1ccc(S(=O)(=O)N(CCCC(=O)C2CCCCCC2)c2ccc3c(c2)CCCC3)cc1` [Compound 15, N-(4-cycloheptyl-4-oxobutyl)-4-methoxy-N-(5,6,7,8-tetrahydronaphthalen-2-yl)-benzenesulfonamide], for which the melting point was 111 to 112 °C. For the same compound, the activity at 3.125 µM in data set [1] came out at 21.5%. Further, the viability at 6.25 µM in the data set on BE(2)C cells was determined as 104%.
Compound `COc1ccc(S(=O)(=O)N(CCCC(=O)C2CCCCCC2)c2ccc(C3CCCCC3)cc2)cc1` [Compound 16, N-(4-cycloheptyl-4-oxobutyl)-N-(4-cyclohexylphenyl)-4-methoxybenzenesulfonamide] displayed a melting point of 103 to 104 °C. Besides, the activity at 3.125 µM in data set [1] came out at 13.8%.
In turn, `O=C(CCCN(c1ccccc1)S(=O)(=O)c1ccc(OC(F)(F)F)cc1)C1CCCC1` [Compound 11, N-(4-cyclopentyl-4-oxobutyl)-N-phenyl-4-(trifluoromethoxy)benzenesulfonamide] gave a melting point of 69 to 70 °C. The activity at 3.125 µM in data set [1] is 118%. In the data set with BE(2)C cells, the viability at 6.25 µM is 92.4%.
Take `COc1ccc(S(=O)(=O)N(CCCC(=O)C2CCCCCC2)C2CCCCC2)cc1` [Compound 14, N-(4-cycloheptyl-4-oxobutyl)-N-cyclohexyl-4-methoxybenzenesulfonamide]: the activity at 3.125 µM in data set [1] worked out at 65.7%. Besides, the viability at 6.25 µM with BE(2)C cells is 97.5%.
Turning to `COc1ccc(S(=O)(=O)N(CCCC(=O)C2CCCCCC2)c2ccccc2)cc1` [Compound 9, N-(4-cycloheptyl-4-oxobutyl)-4-methoxy-N-phenylbenzenesulfonamide], the activity at 3.125 µM in [1] was found to be 9.6%. Also, in the data set with DENV-2 PL046 strain, the viral-NS3 expression entry was “dose-dependently reduced”. Moreover, the “level of DENV-2 entry” value with DENV-2 (setting [2]) is listed as “significantly reduced”. Further, the “DENV-2 binding to cells” value with DENV-2 (setting [3]) is given as “no effect”. The “median survival time (T50)” value in the data set with DENV-2 NGC-N strain (8-hours-delay treatment, 2 mg/kg of body weight/day oral) amounted to 14 days; in the data set on DENV-2 NGC-N strain (setting [4]), 22 days; with DENV-2 NGC-N strain (setting [5]), 15 days; in the data set with ZIKV PRVABC59 strain (8-hours-delay treatment), 10 days; with ZIKV PRVABC59 strain (immediate treatment), 11 days. In the data set on DENV-2 NGC-N strain (setting [4]), the “mice protected from mortality” value worked out at 40%. In the data set with DENV-2 NGC-N strain (setting [5]), the overall animal survival entry was “minor effect”. Further, the overall survival with DENV-2 NGC-N strain (setting [6]) is 60%; with DENV-2 NGC-N strain (immediate treatment, 8 mg/kg of body weight/day oral) it was 60%; in the data set on ZIKV PRVABC59 strain (8-hours-delay treatment), “minor effect”; in the data set on ZIKV PRVABC59 strain (setting [6]), “did not improve”. For the same compound, the viral load entry with DENV-2 NGC-N strain (setting [7]) and in the data set with ZIKV PRVABC59 strain (setting [7]) was “significantly reduced” in each case. Also, in the data set with ZIKV (setting [2]), the “level of ZIKV entry” value was “significantly reduced”. For the same compound, the “level of ZIKV binding/entry” value in the data set on ZIKV (MOI 10, 90 minutes at room temperature) is reported as “significantly reduced”. In addition, the “ZIKV binding to cells” value in the data set on ZIKV (setting [3]) is on record as “no effect”.
As to `Cc1ccc(S(=O)(=O)N(CCCC(=O)C2CCCCCC2)c2ccccc2)cc1` [Compound 13, N-(4-cycloheptyl-4-oxobutyl)-4-methyl-N-phenylbenzenesulfonamide], in [1], the activity at 3.125 µM came to 76.9%. Also, the viability at 6.25 µM in the data set on BE(2)C cells came to 99.5%.
In the case of `O=C(CCCN(c1ccccc1)S(=O)(=O)c1ccc(Oc2ccccc2)cc1)C1CCCCCC1` [Compound 12, N-(4-cycloheptyl-4-oxobutyl)-4-phenoxy-N-phenylbenzenesulfonamide], the melting point fell in the range of 127 to 128 °C. In addition, the activity at 3.125 µM in data set [1] is 73.4%. For the same compound, in the data set on BE(2)C cells, the viability at 6.25 µM was found to be 95.5%.
For `COc1ccc(S(=O)(=O)N(CCCC(=O)C2C3CC4CC(C3)CC2C4)c2ccccc2)cc1` (centres unmarked) [Compound 10, N-(4-(adamantan-2-yl)-4-oxobutyl)-4-methoxy-N-phenylbenzenesulfonamide], the melting point lay in the range of 117 to 118 °C. For the same compound, the activity at 3.125 µM in data set [1] amounted to 51.1%. In the data set on BE(2)C cells, the viability at 6.25 µM turned out to be 96.7%.
In turn, `CN([C@@H](Cc1ccc(OS(=O)(=O)c2cccc3cnccc23)cc1)C(=O)N1CCN(c2ccccc2)CC1)S(=O)(=O)c1cccc2cnccc12` [KN-62, reference compound] had an IC50 against purified human CaMKII of approximately 1030 nM.
Take `COc1ccc(S(=O)(=O)N(CCCC(=O)C2CCCC2)c2ccccc2)cc1` [Compound 8, N-(4-cyclopentyl-4-oxobutyl)-4-methoxy-N-phenylbenzenesulfonamide]: the melting point was 89 to 90 °C. The activity at 3.125 µM in data set [1] amounted to 25.1%.
`COc1ccc(S(=O)(=O)N(C)CCCC(=O)c2ccc(F)cc2)cc1` [Compound 4, N-(4-(4-fluorophenyl)-4-oxobutyl)-4-methoxy-N-methylbenzenesulfonamide] registered a melting point of 89 to 90 °C. Besides, the activity at 3.125 µM in data set [1] was determined as 101%. The viability at 6.25 µM with BE(2)C cells was found to be 106%.
